# Source: US12012440B2, “Compositions and methods for treatment of fungal infections” (priority 2020, dated 2024)
# Bridge positions count the residues as written; N and C are the ends. Ends that are not written are not given here.
# What was measured:
# C. albicans SC5314 [1] = assay: Murine in vivo model of disseminated candidiasis: survival and body weight; conditions: for survival efficacy: 30 days p.i.; for survival as efficacy metric compared with Cyclic Peptide 5: candidemia model, FIGS. 10 to 15; for survival by end point analysis compared with fluconazole: χ^2 analysis at day 30 p.i.; for survival efficacy compared with 5 mg/kg fluconazole: 0.25 mg/kg Cyclic Peptide 5, 5 mg/kg RTD-1; for survival efficacy compared with 5 mg/kg fluconazole / survival of treated mice compared to saline controls, log-rank P: FIG. 9; for survival of treated mice compared to saline controls, log-rank P: observed 26 days p.i.
# Description: Mice were infected i.v. at T=0 with 3×10^5 blastospores of C. albicans genetically defined reference strain SC5314.
# Mice were infected i.v. at T=0 with 3×10^5 blastospores of C. albicans SC5314. At T=24 h, mice were treated i.p. daily for 7 d w.
# In activity studies the synthetic cyclic tetradecapeptide Cyclic Peptide 5 (SEQ ID NO. 6), which was identified initially as having significant antifungal activity, was used as a model peptide. Briefly, 7-8 week old, immunocompetent, female BALB/c mice were challenged i.v. at T=0 with 3×10^5 CFU of C. albicans SC5314. […]
# Under these test protocols C. albicans-infected mice treated with saline presented with ruffled fur and significant weight loss, and became moribund within 5-10 days, by which time there was >30% body weight loss.
# C. albicans SC5314 [2] = assay: Renal fungal burden in kidney homogenates, murine disseminated candidiasis model; type: in vivo; conditions: FIG. 16; for renal fungal burden compared with fluconazole / renal fungal burden compared with fluconazole, P (Fisher's LSD test): long term survivors 30 days p.i.
# From the text: In activity studies the synthetic cyclic tetradecapeptide Cyclic Peptide 5 (SEQ ID NO. 6), which was identified initially as having significant antifungal activity, was used as a model peptide. Briefly, 7-8 week old, immunocompetent, female BALB/c mice were challenged i.v. at T=0 with 3×10^5 CFU of C. albicans SC5314.
# [3] = tested on: susceptible and multiple drug resistant strains of C. albicans; conditions: long term, on treatment with RTD-1; cited from earlier work
# C. albicans = conditions: cited from earlier work
# [4] = 5 mg/kg i.p. daily for 7 d from T=24 h
compound,measurement,setting,value
"Cyclic Peptide 1: synthetic cyclic tetradecapeptide θ-defensin analog; positions 3-14,1,2: C S C R R R F C L C R R G V (GVCSCRRRFCLCRR; cyclic backbone; Cyclic Peptide 1)",survival efficacy,C. albicans SC5314 [1]; 0.1 mg/kg i.p. daily for 7 d,effective
same,survival efficacy,C. albicans SC5314 [1]; 0.25 mg/kg i.p. daily for 7 d,effective
same,survival as efficacy metric compared with Cyclic Peptide 5,C. albicans SC5314 [1],equivalent or superior to Cyclic Peptide 5
same,survival by end point analysis compared with fluconazole,C. albicans SC5314 [1],more effective than fluconazole
same,renal fungal burden compared with fluconazole,C. albicans SC5314 [2],reduced fungal burden to a greater extent than fluconazole
same,"renal fungal burden compared with fluconazole, P (Fisher's LSD test)",C. albicans SC5314 [2],3.5×10^−5
"RTD-1: naturally occurring θ-defensin of rhesus monkeys, cyclic octadecapeptide with 3 disulfide bonds (cyclo(GFCRCLCRRGVCRCICTR); disulfide (positions not given here); not fully specified (bridges); also: three disulfide bonds, pairing not given here; listed as Macaca mulatta)",survival efficacy compared with 5 mg/kg fluconazole,C. albicans SC5314 [1],more effective than 5 mg/kg of fluconazole
same,"survival of treated mice compared to saline controls, log-rank P",C. albicans SC5314 [1]; [4],3.4×10^−6
same,pro-inflammatory cytokine production in vivo,[3],reduction in long term production of pro-inflammatory cytokines
same,in vitro antifungal activity in presence of serum,C. albicans; presence of serum,abolished by the presence of serum
same,in vitro active concentration relative to concentrations effective in vivo,C. albicans; vs murine animal model studies,≥ 50 fold
"Cyclic Peptide 2: synthetic cyclic tetradecapeptide θ-defensin analog; positions 3-14,1,2: C S C R R R F C I C R R G V (cyclo(GVCSCRRRFCICRR); disulfide 5-10, 3-12)",survival as efficacy metric compared with Cyclic Peptide 5,C. albicans SC5314 [1],equivalent or superior to Cyclic Peptide 5
"Cyclic Peptide 3: synthetic cyclic tetradecapeptide θ-defensin analog; positions 3-14,1,2: C I C R R R V C I C R R G V (GVCICRRRVCICRR; cyclic backbone; Cyclic Peptide 3)",survival efficacy,C. albicans SC5314 [1]; 0.1 mg/kg i.p. daily for 7 d,effective
same,survival as efficacy metric compared with Cyclic Peptide 5,C. albicans SC5314 [1],equivalent or superior to Cyclic Peptide 5
same,survival by end point analysis compared with fluconazole,C. albicans SC5314 [1],more effective than fluconazole
same,renal fungal burden compared with fluconazole,C. albicans SC5314 [2],reduced fungal burden to a greater extent than fluconazole
same,"renal fungal burden compared with fluconazole, P (Fisher's LSD test)",C. albicans SC5314 [2],7.4×10^−3
"OC(Cn1cncn1)(Cn1cncn1)c1ccc(F)cc1F [Fluconazole, fluconazole, reference compound]","survival of treated mice compared to saline controls, log-rank P",C. albicans SC5314 [1]; [4],3.4×10^−6
same,renal fungal burden,"C. albicans SC5314 [2]; 5 mg/kg, long term survivors 30 days p.i. vs moribund saline controls",reduced fungal burden
"Cyclic Peptide 5: model synthetic cyclic tetradecapeptide θ-defensin analog; positions 3-14,1,2: C I C R R R F C L C R R G V (GVCICRRRFCLCRR; cyclic backbone; Cyclic Peptide 5)",survival efficacy compared with 5 mg/kg fluconazole,C. albicans SC5314 [1],more effective than 5 mg/kg of fluconazole
same,survival efficacy compared with RTD-1,"C. albicans SC5314 [1]; 0.25 mg/kg Cyclic Peptide 5 vs 5 mg/kg RTD-1, i.p. once a day for 7 days, BALB/c mice",more effective than 5 mg/kg of RTD-1
same,"survival of treated mice compared to saline controls, log-rank P",C. albicans SC5314 [1]; 0.25 mg/kg i.p. daily for 7 d from T=24 h,2.3×10^−7
same,survival efficacy (FIG. 10),"C. albicans SC5314 [1]; 0.25 mg/kg or 0.1 mg/kg, results similar to treatment with saline",relatively ineffective
same,renal fungal burden compared with fluconazole,C. albicans SC5314 [2],reduced fungal burden to a greater extent than fluconazole
same,"renal fungal burden compared with fluconazole, P (Fisher's LSD test)",C. albicans SC5314 [2],3×10^−3
"CC[C@H](C)C[C@H](C)CCCCCCCCC(=O)N[C@H]1C[C@@H](O)[C@@H](NCCN)NC(=O)[C@@H]2[C@@H](O)CCN2C(=O)[C@H]([C@H](O)CCN)NC(=O)[C@H]([C@H](O)[C@@H](O)c2ccc(O)cc2)NC(=O)[C@@H]2C[C@@H](O)CN2C(=O)[C@H]([C@@H](C)O)NC1=O [Caspofungin, caspofungin, reference compound]","survival of treated mice compared to saline controls, log-rank P",C. albicans SC5314 [1]; [4],3.4×10^−6
"Cyclic Peptide 4: synthetic cyclic tetradecapeptide θ-defensin analog; positions 3-14,1,2: C I C R R R A C L C R R G L (GLCICRRRACLCRR; cyclic backbone; Cyclic Peptide 4)",survival efficacy,C. albicans SC5314 [1]; 0.25 mg/kg i.p. daily for 7 d,effective
same,survival as efficacy metric compared with Cyclic Peptide 5,C. albicans SC5314 [1],equivalent or superior to Cyclic Peptide 5
same,survival by end point analysis compared with fluconazole,C. albicans SC5314 [1],more effective than fluconazole
same,renal fungal burden compared with fluconazole,C. albicans SC5314 [2],reduced fungal burden to a greater extent than fluconazole
same,"renal fungal burden compared with fluconazole, P (Fisher's LSD test)",C. albicans SC5314 [2],0.02
"Cyclic Peptide 6: synthetic cyclic tetradecapeptide θ-defensin analog; positions 3-14,1,2: C R C R R G V C R C R R G V (GVCRCRRGVCRCRR; not fully specified (bridges); ends and bridges not checked; also: cyclic (type not given here))",survival as efficacy metric compared with Cyclic Peptide 5,C. albicans SC5314 [1],equivalent or superior to Cyclic Peptide 5
same,survival compared with fluconazole and Cyclic Peptide 5,"C. albicans SC5314 [1]; peptides at 0.25 mg/kg, FIG. 15",survival that exceeded that of both a prior art antifungal drug (fluconazole) and Circular Peptide 5
same,survival by end point analysis compared with fluconazole,C. albicans SC5314 [1],more effective than fluconazole
